Patent publication US20250361268A1, “NOVEL ANTI-INFLAMMATORY PEPTIDE AND USE THEREOF” (NOVACELL TECHNOLOGY INC., priority 2022, published 2025)
Peptide text beside a SMILES is read from it.

How the values were obtained:
[1] = target: T1, FPR1 (Homo sapiens, UniProt P21462); test: Change in calcium activity by peptide, FPR1 activation effect; format: cell-based; settings: calcium activity (Fura-2), graded per Table 3, read-out: EC50 for [Ca^2+] FPR1
T1 sequence (P21462 1-350): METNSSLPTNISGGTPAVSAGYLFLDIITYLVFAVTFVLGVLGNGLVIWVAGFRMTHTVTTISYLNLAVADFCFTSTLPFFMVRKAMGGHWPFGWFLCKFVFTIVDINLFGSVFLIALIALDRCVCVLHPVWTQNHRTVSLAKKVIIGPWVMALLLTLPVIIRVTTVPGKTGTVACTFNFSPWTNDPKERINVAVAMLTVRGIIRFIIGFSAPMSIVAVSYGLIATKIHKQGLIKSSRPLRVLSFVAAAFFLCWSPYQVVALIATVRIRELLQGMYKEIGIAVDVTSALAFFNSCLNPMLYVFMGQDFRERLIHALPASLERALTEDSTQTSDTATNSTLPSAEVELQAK
Method in brief: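 Calcium flux induced by peptide addition was monitored on a FlexStation 3 plate reader. Before this, cells seeded a day earlier (3×10^5/well) took up the Fura-2 dye for 1 h at 37 °C plus 30 min dark at room temperature.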

[2] = target: T2, FPR2 (Homo sapiens, UniProt P25090); test: Change in calcium activity by peptide (Fura-2) in RBL cells overexpressing FPR2; format: cell-based; settings: calcium activity (Fura-2), graded per Table 3, read-out: EC50 for [Ca^2+] FPR2
T2 construct: expressed in transfected cells; host or cells: RBL cells (RBL-FPR2)
T2 sequence (P25090 1-351): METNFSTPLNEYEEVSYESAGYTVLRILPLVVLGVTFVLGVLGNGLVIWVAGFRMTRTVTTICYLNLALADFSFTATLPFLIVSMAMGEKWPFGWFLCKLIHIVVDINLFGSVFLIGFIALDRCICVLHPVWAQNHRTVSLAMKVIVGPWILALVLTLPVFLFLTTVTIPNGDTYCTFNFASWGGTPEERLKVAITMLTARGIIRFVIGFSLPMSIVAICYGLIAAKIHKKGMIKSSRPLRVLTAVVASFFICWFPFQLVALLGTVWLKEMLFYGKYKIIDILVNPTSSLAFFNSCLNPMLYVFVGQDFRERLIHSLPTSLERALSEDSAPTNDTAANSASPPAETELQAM
Method in brief: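 Peptide-induced intracellular calcium change measured by Fura-2 fluorescence on a plate reader. Cells: RBL line overexpressing FPR2, dye-loaded 1 h at 37 °C then 30 min at RT in dark; peptides from 0.5 mM water/50% DMSO stocks, diluted in HBSS with 20 mM HEPES.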

Row | Structure (SMILES) | EC50 [1] | EC50 [2]
1 | CSCC[C@H](NC(=O)[C@H](CCCNC(=N)N)NC(C)=O)C(=O)N[C@@H](CCCNC(=N)N)C(=O)N[C@@H](Cc1ccc(O)cc1)C(=O)N[C@@H](Cc1ccc(O)cc1)C(=O)N[C@@H](Cc1ccc(O)cc1)C(=O)N[C@H](CCSC)C(N)=O [Peptide 125] (HELM PEPTIDE1{[ac].R.M.R.Y.Y.Y.[dM].[am]}$$$$V2.0) | > 10000 nM | < 10 nM
2 | CSCC[C@H](NC(C)=O)C(=O)N[C@@H](CCCNC(=N)N)C(=O)N[C@@H](Cc1ccc(O)cc1)C(=O)N[C@@H](Cc1ccc(O)cc1)C(=O)N[C@@H](Cc1ccc(O)cc1)C(=O)N[C@H](CCSC)C(N)=O [Peptide 126] (HELM PEPTIDE1{[ac].M.R.Y.Y.Y.[dM].[am]}$$$$V2.0) | > 10000 nM | 11 to 100 nM
3 | CCCC(=O)N[C@@H](Cc1c[nH]cn1)C(=O)N[C@@H](CCSC)C(=O)N[C@@H](CCCCN)C(=O)N[C@@H](Cc1ccc(O)cc1)C(=O)N[C@@H](Cc1ccc(O)cc1)C(=O)N[C@@H](Cc1ccc(O)cc1)C(=O)N[C@H](CCSC)C(N)=O [Peptide 127] (HELM PEPTIDE1{[CCCC(=O)[*:2]].H.M.K.Y.Y.Y.[dM].[am]}$$$$V2.0) | > 10000 nM | < 10 nM
4 | CC[C@H](C)[C@H](N)C(=O)N[C@@H](CCCCN)C(=O)N[C@@H](Cc1ccccc1)C(=O)N[C@@H](Cc1c[nH]c2ccccc12)C(=O)N[C@@H](Cc1ccc(O)cc1)C(=O)N[C@H](CCSC)C(N)=O [Peptide 128] (HELM PEPTIDE1{I.K.F.W.Y.[dM].[am]}$$$$V2.0) | > 10000 nM | 11 to 100 nM
5 | CCCCCCCC(=O)N1CCC[C@H]1C(=O)N[C@@H](CCCCN)C(=O)N[C@@H](Cc1ccc(O)cc1)C(=O)N[C@@H](CCCCN)C(=O)N[C@H](C(=O)N[C@H](CCSC)C(N)=O)C(C)C [Peptide 141] (HELM PEPTIDE1{[CCCCCCCC(=O)[*:2]].P.K.Y.K.V.[dM].[am]}$$$$V2.0) | > 10000 nM | < 10 nM
6 | CC[C@H](C)[C@H](NC(C)=O)C(=O)N[C@@H](CCCCN)C(=O)N[C@@H](Cc1ccc(O)cc1)C(=O)N[C@@H](CCCCN)C(=O)N1CCC[C@H]1C(=O)N[C@H](CCSC)C(N)=O [Peptide 143] (HELM PEPTIDE1{[ac].I.K.Y.K.P.[dM].[am]}$$$$V2.0) | > 10000 nM | < 10 nM
7 | CCCC(=O)N[C@H](C(=O)N[C@@H](CCCCN)C(=O)N[C@@H](Cc1ccc(O)cc1)C(=O)N[C@@H](CCCCN)C(=O)N1CCC[C@H]1C(=O)N[C@H](CCSC)C(N)=O)[C@@H](C)CC [Peptide 144] (HELM PEPTIDE1{[CCCC(=O)[*:2]].I.K.Y.K.P.[dM].[am]}$$$$V2.0) | > 10000 nM | < 10 nM
8 | CCCCCCCC(=O)N[C@H](C(=O)N[C@@H](CCCCN)C(=O)N[C@@H](Cc1ccc(O)cc1)C(=O)N[C@@H](CCCCN)C(=O)N1CCC[C@H]1C(=O)N[C@H](CCSC)C(N)=O)[C@@H](C)CC [Peptide 145] (HELM PEPTIDE1{[CCCCCCCC(=O)[*:2]].I.K.Y.K.P.[dM].[am]}$$$$V2.0) | > 10000 nM | 11 to 100 nM
9 | CSCC[C@@H](NC(=O)[C@@H]1CCCN1C(=O)[C@H](CCCCN)NC(=O)[C@H](Cc1ccc(O)cc1)NC(=O)[C@H](CCCCN)NC(=O)[C@@H](N)Cc1c[nH]cn1)C(N)=O [Peptide 146] (HELM PEPTIDE1{H.K.Y.K.P.[dM].[am]}$$$$V2.0) | > 10000 nM | < 10 nM
10 | CSCC[C@@H](NC(=O)[C@@H]1CCCN1C(=O)[C@H](CCCCN)NC(=O)[C@H](Cc1ccc(O)cc1)NC(=O)[C@H](CCCCN)NC(=O)[C@H](Cc1c[nH]cn1)NC(C)=O)C(N)=O [Peptide 147] (HELM PEPTIDE1{[ac].H.K.Y.K.P.[dM].[am]}$$$$V2.0) | > 10000 nM | < 10 nM
11 | CCCC(=O)N[C@@H](Cc1c[nH]cn1)C(=O)N[C@@H](CCCCN)C(=O)N[C@@H](Cc1ccc(O)cc1)C(=O)N[C@@H](CCCCN)C(=O)N1CCC[C@H]1C(=O)N[C@H](CCSC)C(N)=O [Peptide 148] (HELM PEPTIDE1{[CCCC(=O)[*:2]].H.K.Y.K.P.[dM].[am]}$$$$V2.0) | > 10000 nM | < 10 nM

The remaining lines, values ahead:

Row | EC50 [1] | EC50 [2] | Structure (SMILES)
12 | > 10000 nM | 11 to 100 nM | CC[C@H](C)[C@H](N)C(=O)N[C@@H](CCCCN)C(=O)N[C@@H](Cc1ccccc1)C(=O)N[C@@H](Cc1c[nH]c2ccccc12)C(=O)N[C@@H](CCSC)C(=O)N[C@H](CCSC)C(N)=O [Peptide 129] (HELM PEPTIDE1{I.K.F.W.M.[dM].[am]}$$$$V2.0)
13 | > 10000 nM | 11 to 100 nM | CC[C@H](C)[C@H](N)C(=O)N[C@@H](CCCCN)C(=O)N[C@@H](CCCCN)C(=O)N[C@@H](Cc1c[nH]c2ccccc12)C(=O)N[C@@H](CCSC)C(=O)N[C@H](CCSC)C(N)=O [Peptide 130] (HELM PEPTIDE1{I.K.K.W.M.[dM].[am]}$$$$V2.0)
14 | > 10000 nM | 11 to 100 nM | CC[C@H](C)[C@H](N)C(=O)N[C@@H](CCCCN)C(=O)N[C@@H](Cc1ccccc1)C(=O)N[C@@H](CCCCN)C(=O)N[C@@H](Cc1ccc(O)cc1)C(=O)N[C@H](CCSC)C(N)=O [Peptide 131] (HELM PEPTIDE1{I.K.F.K.Y.[dM].[am]}$$$$V2.0)
15 | > 10000 nM | 11 to 100 nM | CC[C@H](C)[C@H](N)C(=O)N[C@@H](CCCCN)C(=O)N[C@@H](Cc1ccccc1)C(=O)N[C@@H](CCCCN)C(=O)N[C@H](C(=O)N[C@H](CCSC)C(N)=O)C(C)C [Peptide 132] (HELM PEPTIDE1{I.K.F.K.V.[dM].[am]}$$$$V2.0)
16 | > 10000 nM | < 10 nM | CC[C@H](C)[C@H](N)C(=O)N[C@@H](CCCCN)C(=O)N[C@@H](Cc1ccccc1)C(=O)N[C@@H](CCCCN)C(=O)N1CCC[C@H]1C(=O)N[C@H](CCSC)C(N)=O [Peptide 133] (HELM PEPTIDE1{I.K.F.K.P.[dM].[am]}$$$$V2.0)
17 | > 10000 nM | < 10 nM | CC[C@H](C)[C@H](N)C(=O)N[C@@H](CCCCN)C(=O)N[C@@H](Cc1ccc(O)cc1)C(=O)N[C@@H](CCCCN)C(=O)N[C@H](C(=O)N[C@H](CCSC)C(N)=O)C(C)C [Peptide 134] (HELM PEPTIDE1{I.K.Y.K.V.[dM].[am]}$$$$V2.0)
18 | > 10000 nM | < 10 nM | CC[C@H](C)[C@H](NC(C)=O)C(=O)N[C@@H](CCCCN)C(=O)N[C@@H](Cc1ccc(O)cc1)C(=O)N[C@@H](CCCCN)C(=O)N[C@H](C(=O)N[C@H](CCSC)C(N)=O)C(C)C [Peptide 135] (HELM PEPTIDE1{[ac].I.K.Y.K.V.[dM].[am]}$$$$V2.0)
19 | > 10000 nM | < 10 nM | CCCC(=O)N[C@H](C(=O)N[C@@H](CCCCN)C(=O)N[C@@H](Cc1ccc(O)cc1)C(=O)N[C@@H](CCCCN)C(=O)N[C@H](C(=O)N[C@H](CCSC)C(N)=O)C(C)C)[C@@H](C)CC [Peptide 136] (HELM PEPTIDE1{[CCCC(=O)[*:2]].I.K.Y.K.V.[dM].[am]}$$$$V2.0)
20 | 1000 to 10000 nM | < 10 nM | CCCCCCCC(=O)N[C@H](C(=O)N[C@@H](CCCCN)C(=O)N[C@@H](Cc1ccc(O)cc1)C(=O)N[C@@H](CCCCN)C(=O)N[C@H](C(=O)N[C@H](CCSC)C(N)=O)C(C)C)[C@@H](C)CC [Peptide 137] (HELM PEPTIDE1{[CCCCCCCC(=O)[*:2]].I.K.Y.K.V.[dM].[am]}$$$$V2.0)
21 | > 10000 nM | < 10 nM | CSCC[C@@H](NC(=O)[C@@H](NC(=O)[C@H](CCCCN)NC(=O)[C@H](Cc1ccc(O)cc1)NC(=O)[C@H](CCCCN)NC(=O)[C@@H]1CCCN1)C(C)C)C(N)=O [Peptide 138] (HELM PEPTIDE1{P.K.Y.K.V.[dM].[am]}$$$$V2.0)
22 | > 10000 nM | < 10 nM | CSCC[C@@H](NC(=O)[C@@H](NC(=O)[C@H](CCCCN)NC(=O)[C@H](Cc1ccc(O)cc1)NC(=O)[C@H](CCCCN)NC(=O)[C@@H]1CCCN1C(C)=O)C(C)C)C(N)=O [Peptide 139] (HELM PEPTIDE1{[ac].P.K.Y.K.V.[dM].[am]}$$$$V2.0)
23 | > 10000 nM | < 10 nM | CCCC(=O)N1CCC[C@H]1C(=O)N[C@@H](CCCCN)C(=O)N[C@@H](Cc1ccc(O)cc1)C(=O)N[C@@H](CCCCN)C(=O)N[C@H](C(=O)N[C@H](CCSC)C(N)=O)C(C)C [Peptide 140] (HELM PEPTIDE1{[CCCC(=O)[*:2]].P.K.Y.K.V.[dM].[am]}$$$$V2.0)
24 | > 10000 nM | < 10 nM | CC[C@H](C)[C@H](N)C(=O)N[C@@H](CCCCN)C(=O)N[C@@H](Cc1ccc(O)cc1)C(=O)N[C@@H](CCCCN)C(=O)N1CCC[C@H]1C(=O)N[C@H](CCSC)C(N)=O [Peptide 142] (HELM PEPTIDE1{I.K.Y.K.P.[dM].[am]}$$$$V2.0)
